Laboratory results published in patent US20200188426A1, “WOUND MANAGEMENT METHOD” (priority 2018, published 2020).

Tested on: microbes (bacteria, fungi, and viruses)
Test: testing of methylene chloride as microbicidal agent
Format: cell-based
Conditions: in liquid form, prior to evaporation

Structure (SMILES): ClCCl [methylene chloride]
- microbicidal activity on contact: kill microbes (bacteria, fungi, and viruses) on contact
